Assays:
[1] = test system: blood lipids; assay: Supplementation in human males: lipid variables; format: in vivo; details: for TC: total cholesterol; for TG: triglycerides
Description: (§1) The respective effects of pectin and an acetate when administered to the colon of a mammal were determined during a first experiment. The experiment was conducted in the following two phases: [drawing 1]
(§2) Twenty human males participated in the experimentation and these subjects were not on any medication for any chronic diseases at the time, and also had no history of cardiovascular disease. All the subjects were at the time following a relatively high fibre, low fat diet. During the first phase ten subjects consumed a total of 15 grams of pectin per day in four aliquots, while the other ten consumed a total of 15 grams of placebo (starch) per day in four aliquots.
(§3) During the second phase, the first group consumed a total of 7.5 grams of calcium acetate per day in four aliquots and the second group consumed a total of 15 grams of pectin per day in four aliquots. The calcium acetate was administered in capsules which were coated with a protective coating comprising a resin known commercially as shellac. This protective coating is resistant to digestion and solution in the stomach and small intestines, is but not resistant to the enzymes of the organisms usually found in the colon, so that the calcium acetate was thus released in the colon.
(§4) Blood samples where taken from the subjects after each phase and a large number of variables where tested.

[2] = test system: fibrin clot; assay: Supplementation in human males: haemostatic variables and characteristics of fibrin networks developed in plasma; format: in vivo; details: for CLOT (FIBRIN): clot fibrin content; for LYSIS TIME (t 50%): clot; for COMPACTION: fibrin clot; for MPC: macromolecular protein complex; for μ,: mass length ratio from turbidity; for FIBRINOGEN: plasma
Description: as §1, §2, §3, §4

[3] = Supplementation in human males: haemorheological variables (haematocrit, haemoglobin, plasma viscosity); format: in vivo; details: for VISCOSITY: plasma
Description: as §1, §2, §3, §4

[4] = Supplementation in human males: metabolic variables; details: for FFA: free fatty acids; for IR: insulin resistance; for TP: total protein
Description: as §1, §2, §3, §4

[5] = Pectin / calcium acetate supplementation in human males: body weight and BMI; format: in vivo
Text: The acetate supplement (phase 2), however, caused a decrease (from 88.16±12.35 kg to 83.09±10.80 kg) in body weight. Although this decrease may not be of statistical significance, it can be clinically significant in the cases of those subjects who lost weight.

[6] = as above; format: in vivo; remark: listed apart in the source
[7] = phase 1, end of supplementation (pectin 15 g/day)
[8] = phase 2, end of supplementation (pectin 15 g/day; calcium acetate 7.5 g/day)

pectin
decrease in hydrogen peroxide (free radical) content of blood lipids ([1]; pectin supplementation): 49%
% HDL-C ([1]; phase 1, baseline): 18.30%
ApoA ([1]; phase 1, baseline): 1.60 mmol/L
ApoB ([1]; phase 1, baseline): 1.70 mmol/L
HDL-C ([1]; phase 1, baseline): 1.20 mmol/L
LDL-C ([1]; phase 1, baseline): 4.70 mmol/L
TBARM ([1]; phase 1, baseline): 0.60 µM
hydrogen peroxide (H2O2) ([1]; phase 1, baseline): 1.70 µM
% HDL-C [1, 7]: 18.20 ± %
ApoA [1, 7]: 1.23 ± mmol/l
ApoB [1, 7]: 1.29 ± mmol/l
HDL-C [1, 7]: 1.03 ± mmol/l
LDL-C [1, 7]: 4.10 ± mmol/l
TBARM [1, 7]: 0.30 µM
hydrogen peroxide (H2O2) [1, 7]: 0.84 ± μM
% HDL-C ([1]; phase 2, baseline): 15.46%
ApoA ([1]; phase 2, baseline): 1.53 mmol/L
ApoB ([1]; phase 2, baseline): 1.77 mmol/L
HDL-C ([1]; phase 2, baseline): 0.92 mmol/L
LDL-C ([1]; phase 2, baseline): 5.17 mmol/L
TBARM ([1]; phase 2, baseline): 2.06 µM
hydrogen peroxide (H2O2) ([1]; phase 2, baseline): 1.20 µM
% HDL-C [1, 8]: 18.79 ± %
ApoA [1, 8]: 1.39 ± mmol/l
ApoB [1, 8]: 1.39 ± mmol/l
HDL-C [1, 8]: 1.13 ± mmol/l
LDL-C [1, 8]: 4.59 mmol/L
TBARM [1, 8]: 0.61 ± μM
hydrogen peroxide (H2O2) [1, 8]: 0.73 ± μM
TC ([1]; phase 1, baseline): 6.50 mmol/L
TC [1, 7]: 5.67 ± mmol/l
TC ([1]; phase 2, baseline): 6.89 mmol/L
TC [1, 8]: 6.07 mmol/L
TG ([1]; phase 1, baseline): 2.00 mmol/L
TG [1, 7]: 1.78 mmol/L
TG ([1]; phase 2, baseline): 1.99 mmol/L
TG [1, 8]: 1.78 mmol/L
CLOT (FIBRIN) ([2]; phase 1, baseline): 2.22 g/L
CLOT (FIBRIN) [2, 7]: 1.90 ± g/l
CLOT (FIBRIN) ([2]; phase 2, baseline): 2.55 g/L
CLOT (FIBRIN) [2, 8]: 1.86 ± g/l
LYSIS TIME (t 50%) ([2]; phase 1, baseline): 285.6
LYSIS TIME (t 50%) [2, 7]: 232.9 ±
LYSIS TIME (t 50%) ([2]; phase 2, baseline): 285.6
LYSIS TIME (t 50%) [2, 8]: 132.9 ±
COMPACTION ([2]; phase 1, baseline): 21.51%
COMPACTION [2, 7]: 30.16 ± %
COMPACTION ([2]; phase 2, baseline): 20.67%
COMPACTION [2, 8]: 31.53 ± %
MPC ([2]; phase 1, baseline): 0.1218 g/L
MPC [2, 7]: 0.0836 ± g/l
MPC ([2]; phase 2, baseline): 0.1002 g/L
MPC [2, 8]: 0.0807 ± g/l
μ, ([2]; phase 1, baseline): 19.94 Dal/cm × 10^12
μ, [2, 7]: 24.80 ± Dal/cm × 10^12
μ, ([2]; phase 2, baseline): 19.02 Dal/cm × 10^12
μ, [2, 8]: 32.10 ± Dal/cm × 10^12
FIBRINOGEN ([2]; phase 1, baseline): 3.51 g/L
FIBRINOGEN [2, 7]: 3.30 g/L
FIBRINOGEN ([2]; phase 2, baseline): 4.11 g/L
FIBRINOGEN [2, 8]: 3.72 g/L
HAEMATOCRIT ([3]; phase 1, baseline): 48.70%
HAEMOGLOBIN ([3]; phase 1, baseline): 10.30 mmol/L
HAEMATOCRIT [3, 7]: 48.10%
HAEMOGLOBIN [3, 7]: 9.60 ± mmol/l
HAEMATOCRIT ([3]; phase 2, baseline): 47.38%
HAEMOGLOBIN ([3]; phase 2, baseline): 10.82 mmol/L
HAEMATOCRIT [3, 8]: 45.39%
HAEMOGLOBIN [3, 8]: 9.75 ± mmol/l
VISCOSITY ([3]; phase 1, baseline): 1.81 cP
VISCOSITY [3, 7]: 1.60 ± cP
VISCOSITY ([3]; phase 2, baseline): 1.75 cP
VISCOSITY [3, 8]: 1.62 ± cP
FFA ([4]; phase 1, baseline): 0.39 mmol/L
FFA [4, 7]: 0.31 ± mmol/l
FFA ([4]; phase 2, baseline): 0.48 mmol/L
FFA [4, 8]: 0.40 ± mmol/l
IR ([4]; phase 1, baseline): 4.29
IR [4, 7]: 4.16
IR ([4]; phase 2, baseline): 9.40
IR [4, 8]: 5.77
ALBUMIN ([4]; phase 1, baseline): 47.23 g/L
GLUCOSE ([4]; phase 1, baseline): 3.98 mmol/L
INSULIN ([4]; phase 1, baseline): 10.95 μU/ml
PPA/ALB ([4]; phase 1, baseline): 8.26 × 10^1
ALBUMIN [4, 7]: 47.79 g/L
GLUCOSE [4, 7]: 3.72 mmol/L
INSULIN [4, 7]: 11.25 μU/ml
PPA/ALB [4, 7]: 6.49 ± × 10^1
ALBUMIN ([4]; phase 2, baseline): 45.53 g/L
GLUCOSE ([4]; phase 2, baseline): 4.29 mmol/L
INSULIN ([4]; phase 2, baseline): 18.55 μU/ml
PPA/ALB ([4]; phase 2, baseline): 10.50 × 10^1
ALBUMIN [4, 8]: 45.48 ± g/l
GLUCOSE [4, 8]: 4.00 mmol/L
INSULIN [4, 8]: 13.83 μU/ml
PPA/ALB [4, 8]: 8.78 ± × 10^1
TP ([4]; phase 1, baseline): 60.55 g/L
TP [4, 7]: 66.84 g/L
TP ([4]; phase 2, baseline): 72.36 g/L
TP [4, 8]: 75.21 g/L
BMI ([5]; phase 2, baseline): 29.46 kg/m^2
BODY WEIGHT ([5]; phase 2, baseline): 92.07 kg
BMI [5, 8]: 29.32 kg/m^2
BODY WEIGHT [5, 8]: 91.55 kg
weight reduction ([6]; pectin supplemented subject group): No weight reduction
BMI ([6]; phase 1, baseline): 27.50 kg/m^2
BODY WEIGHT ([6]; phase 1, baseline): 89.50 kg
BMI [6, 7]: 27.40 kg/m^2
BODY WEIGHT [6, 7]: 89.10 kg

From US6528095B1, “Anti-atherosclerotic and anti-thrombotic agent and the use thereof” (Potchefstroom University for Christian Higher Education, priority 2000, dated 2003)
